Data reported in US20040097534A1, “Composition for the protection and regeneration of nerve cells containing berberine derivatives” (EUGENBIO INC., priority 2001, published 2004).

What was measured:
sciatic nerves = experiment: Regeneration of crushed sciatic nerves (axons, myelin sheaths); assay type: in vivo, Sprague-Dawley white rat; settings: for number of axons longer than 300 μm / number of myelin sheaths longer than 200 μm: berberine intraperitoneal
Experimental: After a Sprague-Dawley white rat (male, weighing about 200 g) was anesthetized with pentobarbital (50 mg/kg), the left sciatic nerve was exposed at the sciatic notch. Subsequently, all nerve fibers except the artery in the sciatic nerve were cut, or both sides of nerve fibers were tied using #9 blood vessel suture, and then the center of the nerve fibers were cut using iridectomy scissors. In a crush model, nerve fibers were thoroughly crushed twice using a crush clip. After nerve fibers were injured, proximal stumps and distal stumps were obtained over various time intervals (6 hours, 1 day, 3 day, 7 day, 14 day, 21 day and 28 day), respectively, before testing. For comparison, the right sciatic nerve was used as a control group.
After a white rat was anesthetized, its sciatic nerves were exposed and crushed. PBS or berberine was intraperitoneally injected into the rat. 1 week, 2 weeks and 4 weeks after suturing, nerve regeneration was observed. The rat was perfused and then sciatic nerves were obtained from the distal stump. After the obtained sciatic nerves were cryosected to a thickness of 7-10 μm, cryosected sciatic nerves were double-stained using beta-tubulin isotypeIII (cy3, red), which is an axon marker, and MBP ([…], cy2, green) antibody, which is a differentiation (myelin) marker of Schwann cells. It was observed under a confocal microscope that axons (see, Table 11) were longer than 300 μm and myelin sheaths (see, Table 12) were longer than 200 μm (see, FIGS. 13 to 15, 19a and 19b).

[1] = tested on: pyramidal nerve cells in the hippocampal CA1 region; experiment: Forebrain ischemia induced by 4-vessel occlusion (4-VO), viable CA1 cells; assay type: in vivo, Wister male white rats; settings: berberine i.p. 0 and 90 minutes after ischemia induction, 1 week after; sham 308±6.6, saline 28±3.8
Experimental: A 4-VO model was prepared by a modified method of Pulsinelli, et al (Ann. Neurol. 11, 491-498(1982)). Wister male white rats weighing about […] were anesthetized with 5% isoflurane contained in a mixture of nitrogen and oxygen (70:30), and then surgery was performed under anesthetization while maintaining the concentration of isoflurane at 1.5%.
First, the throat region was incised, and then silicone tube rings were inserted into common carotid arteries to perform reperfusion after ischemia induction. Upon inducing ischemia, in order to block blood circulation through microvessels, a thread was penetrated so that the trachea, esophagus, external jugular veins and common carotid arteries of the rat were positioned to the front, and cervical and paravertebral muscles of the rat were positioned to the back. Thereafter, the wounds were sutured with operating clips.
Next, the head of the rat was fixed on a stereotaxic apparatus to operate on the occiput, and then the tail was fixed so that it descended downwardly at an angle of 30°. […]
While body temperatures of the rats were measured at intervals of 30 minutes for 2 hours, and thereafter measured at intervals of 1 hour for 3 hours after ischemia induction, the rats were maintained at 37±0.5° C. using a temperature-controlling heater. The body temperature was measured by inserting a probe into the rectum to a depth of 6 cm. […]

white rats = experiment: Toxicity and side effects in vivo
Experimental: The dosage for berberine can be varied depending upon known factors, such as age, sex, body weight, disease severity and health condition of the recipient. The daily dosage is commonly in the range of 100 to 150 mg/60 kg of body weight in two or three installments.

SH-SY5Y cells = experiment: MTT assay, SH-SY5Y survival under serum deprivation-induced stress; assay type: cell-based, human; settings: for O.D.: 2 days; for Average (O.D. relative to N2): N2 = 100%
Experimental: Cell injuries under condition of serum deprivation-induced stress and oxidative stress were measured by MTT assay. For MTT assay, Cells were seeded into N2 medium in an amount of 7.5×10^3 cells, and then a neurotoxin or a nerve growth factor was added thereto to differentiate the cells and then 0.1 volume of 4 mg/ml MTT was further added. The mixture was stored at 37° C. for 3-4 hours. After 100 μl of solubilization buffer was added to the mixture and then stored for 24 hours, O.D. values were measured by ELISA assay.
In order to prepare a stroke-like cell model using SH-SY5Y, the cells were cultured under serum deprivation. […] Retinoic acid, which induces the differentiation of SH-SY5Y as a cell differentiation factor, was used as a positive control. 3 hours before depriving serum, the cells were treated with berberine (0.25˜3 μg). The cells were cultured in chemically defined media (N2) for 2 days to induce nerve regeneration (see, Table 2 and FIG. 4a).

COc1ccc2cc3[n+](cc2c1OC)CCc1cc2c(cc1-3)OCO2 [Berberine, 7,8,13,13a-tetradihydro-9,10-dimethoxy-2,3-(methylenedioxy) berbinium]
number of myelin sheaths longer than 200 μm, increase (sciatic nerves; 1 week): doubled | effect on axonal growth and the regeneration of myelin sheaths (sciatic nerves; 1 week after operation): not great | number of axons longer than 300 μm (sciatic nerves; 1 week, PBS = 14.5): 24.6 | number of myelin sheaths longer than 200 μm (sciatic nerves; 1 week, PBS = 16.5): 35 | number of axons longer than 300 μm (sciatic nerves; 2 weeks, PBS = 20.5): 32.3 | number of myelin sheaths longer than 200 μm (sciatic nerves; 2 weeks, PBS = 43): 88.6 | number of axons (neurites) longer than 300 μm, increase (sciatic nerves; 4 weeks): doubled | number of myelin sheaths longer than 200 μm, increase (sciatic nerves; 4 weeks): 3 times | density of viable cells in hippocampal CA1 [1]: 257±9.6 cell/mm^2 | LD50 (white rats; intraperitoneally injected): 24.3 mg/kg | acute toxicity (white rats; white rats): no acute toxicity | side effects on liver functions (white rats; white rats): no side effects on liver functions | O.D. (SH-SY5Y cells; N2 + berberine 0.25 μg/ml): 0.076 | Average (O.D. relative to N2) (SH-SY5Y cells; N2 + berberine 0.25 μg/ml): 113% | O.D. (SH-SY5Y cells; N2 + berberine 1.5 μg/ml): 0.118 | Average (O.D. relative to N2) (SH-SY5Y cells; N2 + berberine 1.5 μg/ml): 177% | O.D. (SH-SY5Y cells; N2 + berberine 3 μg/ml): 0.104 | Average (O.D. relative to N2) (SH-SY5Y cells; N2 + berberine 3 μg/ml): 155% | cell survival (SH-SY5Y cells; serum deprivation, berberine 3 μg/ml compared with 1.5 μg/ml): somewhat decreased | cell survival rate versus control group (SH-SY5Y cells; serum deprivation, berberine (1.5 μg/ml elsewhere in the source)): two times higher
